The source of these data is paper PMC5041076, “Ilex kaushue and Its Bioactive Component 3,5-Dicaffeoylquinic Acid Protected Mice from Lipopolysaccharide-Induced Acute Lung Injury” (Scientific Reports, 2016).

Read-outs that look alike come from different tables or passages of the source.

For test [1], the target named is T1, Human neutrophil elastase (Homo sapiens, UniProt P08246).
T1 construct: purchased Enzo BML-SE284
T1 sequence (P08246 30-267): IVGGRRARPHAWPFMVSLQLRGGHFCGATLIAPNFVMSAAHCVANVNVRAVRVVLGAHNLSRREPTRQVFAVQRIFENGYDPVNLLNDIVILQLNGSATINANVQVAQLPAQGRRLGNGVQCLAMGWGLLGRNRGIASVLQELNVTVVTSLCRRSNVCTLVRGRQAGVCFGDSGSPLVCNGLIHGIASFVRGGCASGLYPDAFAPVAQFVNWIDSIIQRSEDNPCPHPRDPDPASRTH
Put plainly: Serine protease enzyme inhibition assay, HNE. The class given is biochemical. The following applies: for Inh % (HNE inhibition): at 30 M (so in the source).

Test [2] deals with fMLF/CB-activated neutrophils. Put plainly: Elastase release in fMLF/CB-activated neutrophils. The class given is cell-based. The following applies: for IC50: read-out: IC50 HNE (NE activity / elastase release). As for the experimental part: (§1) All assays were performed as described previously[58],[59]. Neutrophils isolated from the blood of healthy volunteers (20–30 years old) were resuspended in a Ca^2+-free HBSS buffer (pH 7.4) at 4 °C before use. O2^.− generation was measured based on reduction of ferricytochrome c. In brief, after supplementation with 0.5 mg/ml ferricytochrome c and 1 mM Ca^2+, neutrophils were equilibrated at 37 °C for 2 min and incubated with the specified drugs for 5 min. Neutrophils were activated using 30 nM fMLF or 100 nM LTB4 for 10 min after addition of cytochalasin B (CB, 1 μg/mL) for 3 min. Changes in absorbance concomitant with reduction of ferricytochrome c at 550 nm were continuously monitored. For elastase release, neutrophils (6 × 10^5 cells/mL) were mixed with methoxysuccinyl-Ala-Ala-Pro-Val-pNA (100 μM) substrate at 37 °C for 5 min. […] Inhibition of superoxide generation and elastase release were calculated in keeping with previous reports.

Test [3] deals with T2, Human proteinase 3 (Homo sapiens, UniProt P24158).
T2 construct: purchased Merk 539483
T2 sequence (P24158 28-256): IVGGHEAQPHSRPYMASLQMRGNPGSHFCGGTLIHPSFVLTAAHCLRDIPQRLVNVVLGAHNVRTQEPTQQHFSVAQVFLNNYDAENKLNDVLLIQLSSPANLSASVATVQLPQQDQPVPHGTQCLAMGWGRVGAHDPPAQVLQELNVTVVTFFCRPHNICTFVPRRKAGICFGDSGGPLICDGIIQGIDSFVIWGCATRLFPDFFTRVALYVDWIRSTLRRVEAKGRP
Description: Serine protease enzyme inhibition assay, proteinase 3. Conditions: mean ± S.E.M. (n ≥ 3). The class given is biochemical.

The target of test [4] is Human thrombin (Homo sapiens, UniProt P00734). Description: Serine protease enzyme inhibition assay, thrombin.
Test [5] addresses T3, Human cathepsin G (Homo sapiens, UniProt P08311).
T3 construct: purchased Enzo BML-SE283
T3 sequence (P08311 21-255): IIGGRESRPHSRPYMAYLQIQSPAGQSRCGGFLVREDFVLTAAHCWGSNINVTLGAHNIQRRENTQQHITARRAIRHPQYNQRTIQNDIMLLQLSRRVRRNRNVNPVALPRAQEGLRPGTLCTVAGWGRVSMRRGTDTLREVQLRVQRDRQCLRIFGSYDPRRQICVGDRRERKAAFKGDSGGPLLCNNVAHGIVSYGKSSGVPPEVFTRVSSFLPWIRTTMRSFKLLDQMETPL
Put plainly: Serine protease enzyme inhibition assay, cathepsin G. Format: biochemical. The following applies: mean ± S.E.M. (n ≥ 3).

The subject of test [6] is fMLF/CB-activated neutrophils. Description: O2.- generation in fMLF/CB-activated neutrophils (ferricytochrome c reduction). The class given is cell-based, human. The following applies: for IC50 / IC50 O2^.− generation: fMLF/CB-activated human neutrophils. As for the experimental part:
as §1

For test [7], the target named is T4, Bovine chymotrypsin (Bos taurus, UniProt P00766).
T4 construct: purchased Sigma-Aldrich C4129
Description: Serine protease enzyme inhibition assay, chymotrypsin. The class given is biochemical. Conditions: mean ± S.E.M. (n ≥ 3).

Where [8] appears, read: enzyme assay, mean ± S.E.M. (n ≥ 3), read-out: IC50 HNE.
Setting [9] is: fMLF/CB-activated human neutrophils.
[10] abbreviates: read-out: IC50 Thrombin, enzyme assay, mean ± S.E.M. (n ≥ 3).
Where [11] appears, read: Table S3, read-out: IC50 HNE inhibitory activity.
Setting [12] is: Neutrophil, fMLF/CB-activated human neutrophils.

In the case of `O=C(C=Cc1ccc(O)c(O)c1)OC1C(O)CC(O)(C(=O)O)CC1O` (stereo not shown) [Compound 2], in test [1] (Table S3), the “Inh % (HNE inhibition)” value is recorded as -3.43 ± 4.85%. For the same compound, the IC50 in test [1] (setting [8]) was above 30 µM; in test [2] (setting [9]), above 10 µM; in test [3] it was above 30 µM; in test [4] (setting [10]), above 30 µM; in test [5] it was above 30 µM; in test [6] it was 2.81 ± 1 µM. The compound further yielded an IC50 in test [7] above 30 µM.

Take `O=C(O)/C=C/c1ccc(O)cc1` [p-CA, p-coumaric acid, reference compound]: the IC50 in test [1] (setting [11]) was above 30 µM; in test [2] (Homo sapiens, Neutrophil), above 10 µM; in test [6] (Neutrophil), above 10 µM. For the same compound, the “Inh % (HNE inhibition)” value in test [1] (Table S3) is recorded as -4.00 ± 3.42%. Also, the “IC50 O2^.− generation” value in test [6] is listed as “non-active”.

In turn, `NCCc1ccc(S(=O)(=O)F)cc1` [AEBSF, 4-(2-aminoethyl)-benzenesulphonyl fluoride, reference compound] registered an IC50 in test [4] of 251 ± 8.78 µM.

On to `C[C@@H]1O[C@@H](O[C@H]2[C@H](OC(=O)[C@]34CC[C@@H](C)[C@@](C)(O)[C@H]3C3=CC[C@@H]5[C@@]6(C)CC[C@H](O[C@@H]7OC[C@H](O)[C@H](O[C@@H]8O[C@H](CO)[C@@H](O)[C@H](O)[C@H]8O)[C@H]7O[C@@H]7O[C@@H](C)[C@H](O)[C@@H](O)[C@H]7O)C(C)(C)[C@@H]6CC[C@@]5(C)[C@]3(C)CC4)O[C@H](CO)[C@@H](O)[C@@H]2O)[C@H](O)[C@H](O)[C@H]1O` [Compound 15], for which the IC50 in test [1] (setting [8]) was above 30 µM; in test [2] (setting [9]), 7.99 ± 1.18 µM; in test [3], above 30 µM; in test [4] (setting [10]), above 30 µM; in test [5] it was above 30 µM; in test [6] it was above 10 µM. In addition, the IC50 in test [7] was above 30 µM.

As for `N#C/C=C1/C=C[C@@H](O)C[C@H]1O[C@@H]1O[C@H](CO)[C@@H](O)[C@H](O)[C@H]1O` [Compound 18, menisdaurin], the IC50 was above 30 µM in test [1] (setting [8]); above 10 µM in test [2] (setting [9]); above 30 µM in test [3]; above 30 µM in test [4] (setting [10]); above 30 µM in test [5]; above 10 µM in test [6]. The compound further registered an IC50 in test [7] above 30 µM.

For the compound `O=C(O)[C@]1(O)C[C@@H](O)[C@@H](O)[C@H](O)C1` [QA, quinic acid], the IC50 in test [2] (Homo sapiens, Neutrophil) was above 10 µM; in test [6] (Neutrophil), above 10 µM.

`O=C(/C=C/c1ccc(O)c(O)c1)O[C@@H]1C[C@](O)(C(=O)O)C[C@@H](O)[C@H]1O` [Compound 3, Chlorogenic acid]: in test [1] (Table S3), the “Inh % (HNE inhibition)” value is -4.76 ± 3.36%. The IC50 in test [1] (setting [8]) was above 30 µM; in test [2] (setting [12]) it was above 10 µM; in test [3] it was above 30 µM; in test [4], above 30 µM; in test [5], above 30 µM; in test [6] (Neutrophil) it was 2.56 ± 1.06 µM. In addition, the IC50 in test [7] was above 30 µM.

In the case of `O=C(/C=C/c1ccc(O)c(O)c1)O[C@H](Cc1ccc(O)c(O)c1)C(=O)O` [RA, rosaminiric acid, reference compound], the IC50 in test [1] (setting [11]) was above 30 µM; in test [2] (setting [9]), above 10 µM; in test [6], 1.29 ± 0.09 µM. The “Inh % (HNE inhibition)” value in test [1] (Table S3) worked out at 10.58 ± 4.03%. In addition, the “IC50 O2^.− generation” value in test [6] is on record as “potently inhibit”.

`C[C@@H]1O[C@@H](O[C@H]2[C@H](O[C@H]3CC[C@]4(C)[C@H]5C=CC6=C7[C@]8(CC[C@](C)(OC8=O)[C@@]7(C)O)CC[C@@]6(C)[C@]5(C)CC[C@H]4C3(C)C)OC[C@H](O)[C@@H]2O[C@@H]2O[C@H](CO)[C@@H](O)[C@H](O)[C@H]2O)[C@H](O)[C@H](O)[C@H]1O` [Compound 11]: the IC50 is above 30 µM in test [1] (setting [8]); above 10 µM in test [2] (setting [9]); above 30 µM in test [3]; above 30 µM in test [4] (setting [10]); above 30 µM in test [5]; above 10 µM in test [6]. Moreover, the IC50 in test [7] is above 30 µM.

Take `O=C(O)C=Cc1cccc(O)c1` [Compound 3-HCA, 3-hydroxycinnamic acid, reference compound]: the IC50 in test [1] (setting [11]) is above 30 µM; in test [2] (Homo sapiens, Neutrophil) it was above 10 µM; in test [6] (Neutrophil), above 10 µM. Further, in test [1] (Table S3), the “Inh % (HNE inhibition)” value was -3.63 ± 3.91%. Also, the “IC50 O2^.− generation” value in test [6] was “non-active”.

Consider `CC1=C2C3=CCC4[C@@]5(C)CC[C@H](O)C(C)(C)C5CC[C@@]4(C)[C@]3(C)CC[C@@]2(C(=O)O)CC[C@H]1C` (stereo partly shown) [Compound 15-1, randialic acid B], for which the IC50 is above 30 µM in test [1] (setting [8]); 0.06 ± 0.01 µM in test [2] (setting [12]); 17.44 ± 0.16 µM in test [3]; 24.9 ± 1.33 µM in test [4]; above 30 µM in test [5]; 0.14 ± 0.09 µM in test [6] (Neutrophil). This compound showed an IC50 in test [7] of 16.98 ± 0.1 µM. Besides, the “IC50 HNE (NE activity / elastase release)” value in test [2] (setting [9]) is reported as “good inhibitory effects”. Moreover, in test [6] (fMLF-induced neutrophils), the “efficacy relative to ursolic acid” value turned out to be 5 fold. Also, in test [6], the “IC50 O2^.− generation” value is recorded as “good inhibitory effects”.

`O=C(O)c1cc(O)c(O)c(O)c1` [THBA, 3,4,5-trihyroxybenzoic acid, reference compound]: the IC50 in test [2] (setting [9]) was above 10 µM; in test [6] it was 1.14 ± 0.08 µM. The “IC50 O2^.− generation” value in test [6] was “potently inhibit”.

Take `C=C1C2=C3C=C[C@@H]4[C@@]5(C)CC[C@H](O)C(C)(C)[C@@H]5CC[C@@]4(C)[C@]3(C)CC[C@@]23CC[C@]1(C)OC3=O` [Compound 11-2]: the IC50 in test [1] (setting [8]) was 8.55 ± 1.77 µM; in test [2] (setting [9]) it was above 10 µM; in test [3], 1.99 ± 0.25 µM; in test [4] (setting [10]) it was 2.98 ± 0.35 µM; in test [5], above 30 µM; in test [6], above 10 µM. In addition, the IC50 in test [7] came out at 6.04 ± 0.29 µM. Moreover, in test [1] (five serine proteases examined), the “selectivity of inhibitory effect among serine proteases” value is “non-selective inhibitory effects”.

Turning to `COc1cc(/C=C/C(=O)O)ccc1O` [FA, ferulic acid, reference compound], the IC50 in test [1] (setting [11]) was above 30 µM; in test [2] (setting [9]), above 10 µM; in test [6] it was above 10 µM. The “Inh % (HNE inhibition)” value in test [1] (Table S3) was 0.06 ± 4.79%. The “IC50 O2^.− generation” value in test [6] is “non-active”.

Take `CC1(C)CC[C@]2(C(=O)O)CC[C@]3(C)C(=CC[C@@H]4[C@@]5(C)CC[C@H](O)C(C)(C)[C@@H]5CC[C@]43C)[C@@H]2[C@@H]1O` [Compound 14-1]: the IC50 was above 30 µM in test [1] (setting [8]); 2.84 ± 1.02 µM in test [2] (setting [9]); above 30 µM in test [3]; above 30 µM in test [4] (setting [10]); above 30 µM in test [5]; 4.77 ± 0.4 µM in test [6]. In addition, the IC50 in test [7] was above 30 µM.

Turning to `CC1(C)[C@@H](O)CC[C@]2(C)[C@H]3C=CC4=C5[C@]6(CC[C@](C)(OC6=O)[C@@]5(C)O)CC[C@@]4(C)[C@]3(C)CC[C@@H]12` [Compound 11-1], the IC50 in test [1] (setting [8]) was above 30 µM; in test [2] (setting [9]), above 10 µM; in test [3], 7.62 ± 0.32 µM; in test [4] (setting [10]) it was above 30 µM; in test [5], above 30 µM; in test [6], above 10 µM. In test [7], this compound yielded an IC50 of 8.06 ± 0.4 µM.

For `O=C(O)/C=C/c1ccc(O)c(O)c1` [CA, caffeic acid, reference compound], the IC50 in test [1] (setting [11]) is above 30 µM; in test [2] (Homo sapiens, Neutrophil), above 10 µM; in test [6] (Neutrophil), 1.42 ± 0.02 µM. Also, the “IC50 O2^.− generation” value in test [6] is given as “potently inhibit”.

Consider `CC(C)(C)C(=O)Oc1ccc(S(=O)(=O)Nc2ccccc2C(=O)NCC(=O)O)cc1` [Elaspol, reference compound], for which, in test [3], the IC50 was 0.56 ± 0.06 µM.
